From patent US9266834B2, “1, 4-disubstituted 3-cyano-pyridone derivatives and their use as positive allosteric modulators of MGLUR2-receptors” (JANSSEN PHARMACEUTICALS, INC., priority 2006, dated 2016)

Biological target: T1, human mGluR2 receptor (Homo sapiens, UniProt Q14416)
T1 construct: expressed in transfected cells; host or cells: CHO cells (membrane preparation)
Experiment: [35S]GTPγS binding assay (GTPγS-PAM): positive allosteric modulation in presence of glutamate at EC25, membranes from transfected CHO cells
Format: biochemical
Conditions: in presence of mGluR2 agonist glutamate at predetermined EC25 concentration, averages of duplicate values of 11-concentration response curves
Excerpt: The compounds provided in the present invention are positive allosteric modulators of mGluR2. These compounds appear to potentiate glutamate responses by binding to an allosteric site other than the glutamate binding site. The response of mGluR2 to a concentration of glutamate is increased when compounds of Formula (I) are present. Compounds of Formula (I) are expected to have their effect substantially at mGluR2 by virtue of their ability to enhance the function of the receptor. The behaviour of positive allosteric modulators tested at mGluR2 using the [^35S]GTPγS binding assay method described below and which is suitable for the identification of such compounds, and more particularly the compounds according to Formula (I), are shown in Table 4.
[^35S]GTPγS Binding Assay
The [^35S]GTPγS binding is a functional membrane-based assay used to study G-protein coupled receptor (GPCR) function whereby incorporation of a non-hydrolysable form of GTP, [^35S]GTPγS (guanosine 5′-triphosphate, labelled with […] ^35S), is measured. The G-protein o subunit catalyzes the exchange of guanosine 5′-diphosphate (GDP) by guanosine triphosphate (GTP) and on activation of the GPCR by an agonist, [^35S]GTPγS, becomes incorporated and cannot be cleaved to continue the exchange cycle (Harper (1998) Current Protocols in Pharmacology 2.6.1-10, John Wiley & Sons, Inc.). […] Here we describe the use of the [^35S]GTPγS binding assay using membranes from cells transfected with the human mGluR2 receptor and adapted from Schaffhauser et al ((2003) Molecular Pharmacology 4:798-810) for the detection of the positive allosteric modulation (PAM) properties of the compounds of this invention.
CHO-cells were cultured to pre-confluence and stimulated with 5 mM butyrate for 24 hours, prior to washing in PBS, and then collection by scraping in homogenisation buffer (50 mM Tris-HCl buffer, pH 7.4, 4° C.). Cell lysates were homogenized briefly (15 s) using an ultra-turrax homogenizer. The homogenate was centrifuged at 23 500×g for 10 minutes and the supernatant discarded. The pellet was resuspended in 5 mM Tris-HCl, pH 7.4 and centrifuged again (30 000×g, 20 min, 4° C.). The final pellet was resuspended in 50 mM HEPES, pH 7.4 and stored at −80° C. in appropriate aliquots before use. Protein concentration was determined by the Bradford method (Bio-Rad, USA) with bovine serum albumin as standard.
Measurement of mGluR2 positive allosteric modulators in membranes containing human mGluR2 was performed using frozen membranes that were thawed and briefly homogenised prior to pre-incubation in 96-well microplates (15 μg/assay well, 30 minutes, 30° C.) in assay buffer (50 mM HEPES pH 7.4, 100 mM NaCl, 3 mM MgCl2, 50 μM GDP, 10 μg/ml saponin,) with increasing concentrations of positive allosteric modulator (from 0.3 nM to 50 μM) and either a minimal pre-determined concentration of glutamate (PAM assay), or no added glutamate. For the PAM assay, membranes were pre-incubated with glutamate at EC25 concentration, i.e. a concentration that gives 25% of the maximal response glutamate, and is in accordance to published data (Pin et al. (1999) Eur. J. Pharmacol. 375:277-294). After addition of [^35S]GTPγS (0.1 nM, f.c.) to achieve a total reaction volume of 200 μl, microplates were shaken briefly and further incubated to allow [^35S]GTPγS incorporation on activation (30 minutes, 30° C.). The reaction was stopped by rapid vacuum filtration over glass-fibre filter plates (Unifilter 96-well GF/B filter plates, Perkin-Elmer, Downers Grove, USA) microplate using a 96-well plate cell harvester (Filtermate, Perkin-Elmer, USA), and then by washing three times with 300 μl of ice-cold wash buffer (Na2PO4.2H2O 10 mM, NaH2PO4.H2O 10 mM, pH=7.4). Filters were then air-dried, and 40 μl of liquid scintillation cocktail (Microscint-O) was added to each well, and membrane-bound [^35S]GTPγS was measured in a 96-well scintillation plate reader (Top-Count, Perkin-Elmer, USA). […]

T1 sequence (Q14416 19-872): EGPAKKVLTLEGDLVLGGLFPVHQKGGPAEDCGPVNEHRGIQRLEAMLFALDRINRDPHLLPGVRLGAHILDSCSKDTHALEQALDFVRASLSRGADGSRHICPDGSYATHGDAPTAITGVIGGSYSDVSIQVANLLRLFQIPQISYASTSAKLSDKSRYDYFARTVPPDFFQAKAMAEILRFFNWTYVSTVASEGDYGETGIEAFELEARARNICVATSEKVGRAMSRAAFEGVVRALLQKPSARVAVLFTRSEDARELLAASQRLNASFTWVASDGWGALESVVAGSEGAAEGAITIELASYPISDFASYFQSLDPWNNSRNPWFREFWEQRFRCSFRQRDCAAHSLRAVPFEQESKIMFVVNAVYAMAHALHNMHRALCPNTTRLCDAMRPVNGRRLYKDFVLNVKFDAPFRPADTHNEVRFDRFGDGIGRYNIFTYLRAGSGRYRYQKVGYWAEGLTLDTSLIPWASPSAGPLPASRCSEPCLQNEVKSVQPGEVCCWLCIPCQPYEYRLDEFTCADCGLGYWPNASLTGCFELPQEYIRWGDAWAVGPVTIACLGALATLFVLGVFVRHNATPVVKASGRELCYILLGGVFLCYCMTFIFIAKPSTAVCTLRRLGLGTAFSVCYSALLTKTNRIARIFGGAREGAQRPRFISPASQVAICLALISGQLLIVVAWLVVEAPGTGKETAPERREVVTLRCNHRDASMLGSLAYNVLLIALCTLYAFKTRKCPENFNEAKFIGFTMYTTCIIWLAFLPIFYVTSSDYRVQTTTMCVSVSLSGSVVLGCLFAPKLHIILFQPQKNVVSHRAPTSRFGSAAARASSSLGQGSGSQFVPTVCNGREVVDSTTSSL

| GTPgS - hR2 PAM pEC50 | SMILES |
| --- | --- |
| 6.4 | CCCCn1ccc(-c2ccc(Oc3ccnc(C)c3)cc2)c(C#N)c1=O [1-064, 3-cyano-1-butyl-4-[4-(2-methyl-pyridin-4-yloxy)-phenyl]-pyridine-2(1H)-one] |

Same assay, conditions: in presence of mGluR2 agonist glutamate at predetermined EC25 concentration, averages of duplicate values of 11-concentration response curves, read-out: GTPgS - hR2 PAM pEC50 (converted)

| EC50 [nM] | SMILES |
| --- | --- |
| 3160 | N#Cc1c(N[C@@H]2C[C@H]2c2ccccc2)ccn(CC2CC2)c1=O (racemic) [1-294] |
| 2000 | CC(C)CCn1ccc(N[C@@H]2C[C@H]2c2ccccc2)c(C#N)c1=O (racemic) [1-304] |
| 631 | N#Cc1c(-c2ccc(OCC3CC3)cc2F)ccn(CC2CC2)c1=O [1-003] |
| 398 | N#Cc1c(-c2ccc(Oc3ccnc(N4CCCC4)c3)cc2)ccn(CC2CC2)c1=O [1-005] |
| 316 | N#Cc1c(-c2ccc(Oc3ccnc(N4CCCCC4)c3)cc2)ccn(CC2CC2)c1=O [1-006] |
| 100 | CN(C)c1ccc(-c2ccn(CC3CCCCC3)c(=O)c2C#N)cc1 [1-010] |
| 398 | COc1ccc(-c2ccn(CC3CCCCC3)c(=O)c2C#N)cc1 [1-012] |
| 3980 | Cc1ccccc1Cn1ccc(-c2cccs2)c(C#N)c1=O [1-015] |
| 2000 | COc1ccc(-c2ccn(Cc3ccccc3C)c(=O)c2C#N)cc1 [1-016] |
| 1000 | COc1ccc(-c2ccn(Cc3cccc(C)c3)c(=O)c2C#N)cc1 [1-017] |
| 631 | COc1ccc(-c2ccn(Cc3ccc(C)cc3)c(=O)c2C#N)cc1 [1-021] |
| 316 | COc1ccc(-c2ccn(Cc3ccc(F)cc3)c(=O)c2C#N)cc1 [1-022] |
| 100 | CC(C)Oc1ccc(-c2ccn(Cc3ccc(F)cc3)c(=O)c2C#N)cc1Cl [1-025] |
| 501 | COc1ccc(-c2ccn(Cc3cccc(Cl)c3)c(=O)c2C#N)cc1 [1-026] |
| 501 | COc1ccc(-c2ccn(Cc3ccc(Cl)cc3)c(=O)c2C#N)cc1 [1-027] |
| 1260 | C[C@@H]1COC[C@H](C)N1Cc1ccc(-c2ccn(Cc3ccc(OC(F)(F)F)cc3)c(=O)c2C#N)cc1 [1-034] |
| 631 | CC1COCC(C)N1Cc1ccc(-c2ccn(Cc3ccc(OC(F)(F)F)cc3)c(=O)c2C#N)cc1 (stereo not drawn) [1-036] |
| 2510 | N#Cc1c(-c2ccccc2)ccn(CCOc2ccccc2)c1=O [1-047] |
| 126 | CC(C)Oc1ccc(-c2ccn(CCOc3ccccc3)c(=O)c2C#N)cc1Cl [1-049] |
| 5010 | N#Cc1c(-c2ccccc2)ccn(CCCc2ccccc2)c1=O [1-053] |
| 1000 | CCCCn1ccc(-c2ccc(Cn3ccnc3C)cc2)c(C#N)c1=O [1-060] |
| 6310 | CCCCn1ccc(-c2cccc(Oc3ccccn3)c2)c(C#N)c1=O [1-061] |
| 6310 | CCCCn1ccc(-c2cccc(Oc3ccncc3)c2)c(C#N)c1=O [1-062] |

| EC50 [nM] | SMILES |
| --- | --- |
| 501 | CCCCn1ccc(-c2ccc(Oc3ccncc3)cc2F)c(C#N)c1=O [1-066] |
| 158 | CCCCn1ccc(-c2ccc(Oc3ncccc3C(F)(F)F)cc2)c(C#N)c1=O [1-067] |
| 251 | CCCCn1ccc(-c2ccc(Oc3cccc(C(F)(F)F)n3)cc2)c(C#N)c1=O [1-068] |
| 2510 | CCCCn1ccc(-c2cccc(Oc3ccncc3C(F)(F)F)c2)c(C#N)c1=O [1-069] |
| 631 | CCCCn1ccc(-c2ccc(Oc3ncccc3C#N)cc2)c(C#N)c1=O [1-071] |
| 1580 | CCCCn1ccc(-c2ccc(Oc3ccc(C#N)cn3)cc2)c(C#N)c1=O [1-072] |
| 398 | CCCCn1ccc(-c2ccc(Oc3ccnc(N4CCOCC4)c3)cc2)c(C#N)c1=O [1-073] |
| 5010 | CCCCn1ccc(-c2ccc(Oc3ncccn3)cc2)c(C#N)c1=O [1-074] |
| 5010 | CCCCn1ccc(-c2ccc(Oc3ccncn3)cc2)c(C#N)c1=O [1-075] |
| 3980 | CCCCn1ccc(-c2ccc(Oc3cnccn3)cc2)c(C#N)c1=O [1-076] |
| 6310 | CC(C)CCn1ccc(-c2ccco2)c(C#N)c1=O [1-081] |
| 200 | CC(C)CCn1ccc(-c2ccc(Cl)s2)c(C#N)c1=O [1-083] |
| 3160 | CC(C)CCn1ccc(-c2ccc(F)cc2)c(C#N)c1=O [1-089] |
| 63.1 | CC(C)CCn1ccc(-c2ccc(Br)c(Br)c2)c(C#N)c1=O [1-092] |
| 1000 | CC(C)CCn1ccc(-c2ccc(OCCO)cc2)c(C#N)c1=O [1-099] |
| 2000 | CCOc1ccc(-c2ccn(CCC(C)C)c(=O)c2C#N)cc1 [1-104] |
| 631 | COCCCc1ccc(-c2ccn(CCC(C)C)c(=O)c2C#N)cc1 [1-106] |
| 6310 | COc1cc(-c2ccn(CCC(C)C)c(=O)c2C#N)ccc1O [1-108] |
| 5010 | COc1cc(-c2ccn(CCC(C)C)c(=O)c2C#N)ccc1OCCO [1-109] |
| 631 | COc1cc(F)c(-c2ccn(CCC(C)C)c(=O)c2C#N)c(F)c1 [1-116] |
| 2000 | CC(=O)COc1ccc(-c2ccn(CCC(C)C)c(=O)c2C#N)cc1 [1-118] |
| 631 | CC(C)CCn1ccc(-c2ccc(OC(F)F)cc2)c(C#N)c1=O [1-119] |
| 501 | CC(C)CCn1ccc(-c2ccc(OCCF)c(Cl)c2)c(C#N)c1=O [1-121] |

| EC50 [nM] | SMILES |
| --- | --- |
| 50.1 | CC(C)CCn1ccc(-c2ccc(OC3CCCC3)c(Cl)c2)c(C#N)c1=O [1-124] |
| 5010 | COc1cc(-c2ccn(CCC(C)C)c(=O)c2C#N)ccc1OC(C)=O [1-125] |
| 631 | CC(=O)CCOc1ccc(-c2ccn(CCC(C)C)c(=O)c2C#N)cc1 [1-126] |
| 2000 | CC(C)CCn1ccc(-c2ccc(COCC#N)cc2)c(C#N)c1=O [1-132] |
| 200 | CC(C)CCn1ccc(-c2ccc(OCC3CC3)cc2)c(C#N)c1=O [1-133] |
| 1000 | CC(C)CCn1ccc(-c2ccc(OC3CCCC3)cc2)c(C#N)c1=O [1-135] |
| 631 | CC(C)CCn1ccc(-c2ccc(OCCC3(C)OCCO3)cc2)c(C#N)c1=O [1-136] |
| 1000 | CC(C)CCn1ccc(-c2ccc(OCCOC3CCCCO3)cc2)c(C#N)c1=O (stereo not drawn) [1-137] |
| 794 | COc1cc(-c2ccn(CCC(C)C)c(=O)c2C#N)ccc1OCCOC1CCCCO1 (stereo not drawn) [1-138] |
| 3980 | CC(C)CCn1ccc(-c2ccc(OCCN3CCOCC3)cc2)c(C#N)c1=O [1-139] |
| 39.8 | CC(C)CCn1ccc(-c2ccc(Oc3ccccc3)cc2)c(C#N)c1=O [1-140] |
| 63.1 | CC(C)CCn1ccc(-c2ccc(OCc3ccccc3)cc2)c(C#N)c1=O [1-141] |
| 316 | COc1cc(-c2ccn(CCC(C)C)c(=O)c2C#N)ccc1OCc1ccccc1 [1-142] |
| 501 | CC(C)CCn1ccc(-c2ccc(Oc3ccccn3)cc2)c(C#N)c1=O [1-154] |
| 631 | CC(C)CCn1ccc(-c2ccc(COc3ccncc3)cc2)c(C#N)c1=O [1-160] |
| 631 | CC(C)CCn1ccc(-c2ccc(Oc3ccncc3)cc2F)c(C#N)c1=O [1-161] |
| 79.4 | CC(C)CCn1ccc(-c2ccc(OCc3ccncc3)c(Cl)c2)c(C#N)c1=O [1-165] |
| 1580 | COc1cc(-c2ccn(CCC(C)C)c(=O)c2C#N)ccc1OCc1cccnc1 [1-166] |
| 501 | COc1cc(-c2ccn(CCC(C)C)c(=O)c2C#N)ccc1OCc1ccncc1 [1-167] |
| 6310 | CC(C)CCn1ccc(-c2ccc(OCc3nnc[nH]3)cc2)c(C#N)c1=O [1-168] |
| 794 | CC(C)CCn1ccc(-c2ccc(N)cc2)c(C#N)c1=O [1-170] |
| 1580 | COCCNc1ccc(-c2ccn(CCC(C)C)c(=O)c2C#N)cc1 [1-174] |
